TGI data for 13 compounds are collected here from PubChem BioAssay (NCI).

What all share (experiment): NCI-60 cell line screen, 48 h
For assay [1], the system named is CCRF-CEM leukemia.
In assay [2] the test system is HOP-92 NSCLC.
Assay [3] concerns SK-MEL-5 melanoma.
Assay [4] deals with BT-549 breast.
Assay [5] relates to SK-MEL-28 melanoma.
Assay [6] deals with PC-3 prostate.
Assay [7] has as its system CAKI-1 renal.
The subject of assay [8] is K-562 leukemia.
The test system of assay [9] is HCT-15 colon.
For assay [10], the system named is NCI-H23 lung.

The structures appear in SMILES notation.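 Five compound concentrations were applied to cells in 96-well plates for 48 hours; endpoints were derived by simple linear interpolation of the resulting dose-response curve. TGI: total growth inhibition.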

As for `CC(C)(C)OC(=O)n1c(-c2ccccc2F)cc(=O)c2cc3c(cc21)OCO3`, the TGI in assay [1] is 11.1 µM; in [2] it was over 100 µM; in assay [3] it was 1.2 µM; in assay [4] it was over 100 µM; in [5], over 100 µM; in assay [6] it was over 100 µM. In addition, the TGI in assay [7] is over 37.3 µM; in assay [8], over 100 µM; in assay [9] it was over 31.9 µM; in assay [10], over 100 µM.
With `COC(=O)C1=C(C)NC(C)=C([N+](=O)[O-])C1c1cccc(N=O)c1` (stereo not given), the TGI in [1] is over 100 µM; in assay [2] it was 12.8 µM; in assay [3] it was 29.6 µM; in assay [4], 30.7 µM; in [5], 32 µM; in [6], 32.9 µM. The TGI in assay [7] is 20.6 µM; in [8], over 100 µM; in assay [9] it was 29.1 µM; in [10] it was 33.5 µM.
`CC(C)(C)OC(=O)C1C(=O)NC(=O)CC1C(COCc1ccccc1)OCc1ccccc1` (stereo not given): the TGI in [1] was 77.3 µM; in assay [2], 30.5 µM; in assay [3], 31.1 µM; in [4], 55.6 µM; in [5], 32.1 µM; in assay [6], 27.2 µM. Besides, the TGI was over 100 µM in [7], over 100 µM in assay [8], 54.5 µM in assay [9] and 92.6 µM in assay [10].
With `COc1ccc(N=C2C(=S)N(c3ccc(OC)cc3)/C(=N/S(=O)(=O)c3ccccc3)N2c2ccccc2)cc1`, the TGI in assay [1] was over 100 µM; in [2], 20.7 µM; in [3], 11.1 µM; in assay [4], 11.2 µM; in assay [5] it was 29.7 µM; in assay [6] it was 11.1 µM. In addition, the TGI in [7] was 28.2 µM; in assay [8] it was over 100 µM; in assay [9] it was 23.5 µM; in assay [10], 29 µM.
`CC1=C[C@@H](C)C[C@]2(C)CC[C@H](O2)[C@]23CC[C@](C(=O)O)(C[C@H](O2)[C@@H]2O[C@@](C)(CC2=O)[C@@H](O)[C@H]2CC[C@@]4(CCC[C@@H](O4)[C@H](C)C(=O)O[C@H]4C[C@H]([C@]5(O)OCC[C@H](C)[C@@H]5O)O[C@H]4C=C1)O2)O3`: the TGI is over 10 µM in assay [1]; over 8.25 µM in [2]; over 10 µM in assay [3]; over 10 µM in [4]; over 10 µM in assay [5]; over 10 µM in assay [6]. Moreover, the TGI in assay [7], in [8], in assay [9] and in assay [10] was over 10 µM each time.
As to `COc1cc(C=C2C(=O)NC(=S)NC2=O)cc(OC)c1OC`, the TGI in assay [1], in [2], in assay [3], in assay [4], in assay [5] and in [6] was over 100 µM throughout. The TGI in assay [7], in [8], in [9] and in assay [10] was over 100 µM throughout.
As to `O=C1CC(Sc2nc3ccc(I)cc3c(=O)n2Cc2ccccc2)C(=O)NN1` (stereo not given), the TGI in assay [1] was 24.1 µM; in assay [2], 37.2 µM; in assay [3], 29.7 µM; in [4], 29.3 µM; in assay [5] it was 31.7 µM; in [6], 30.7 µM. Moreover, the TGI came to 11.2 µM in assay [7], 50.5 µM in assay [8], 28.8 µM in assay [9] and 30.1 µM in assay [10].
On to `Cn1ccnc1Sc1ccc(C=Nc2ccc3nc(SCC(=O)NC4CCCCC4)sc3c2)cc1[N+](=O)[O-]`, for which the TGI in assay [1] was over 100 µM; in assay [2], 32.5 µM; in assay [3] it was over 100 µM; in [4], 46.8 µM; in assay [5], over 100 µM; in [6], over 100 µM. The TGI in [7], in assay [8], in assay [9] and in assay [10] was over 100 µM each time.
Turning to `COC(=O)c1cc(C)ccc1CC(Cc1ccc(C)cc1)C(=O)OC` (stereo not given), the TGI is over 100 µM in [1]; 60.2 µM in assay [2]; 12.6 µM in assay [3]; over 100 µM in [4]; over 100 µM in [5]; over 100 µM in assay [6]. For the same compound, the TGI in [7] was over 100 µM; in [8] it was over 38.7 µM; in assay [9], over 77.9 µM; in assay [10], over 100 µM.
In the case of `c1ccc(C2=Nn3c(CCCCCCCCc4nnc5n4N=C(c4ccccc4)CS5)nnc3SC2)cc1`, the TGI is over 59.7 µM in assay [1]; over 82.3 µM in assay [2]; over 100 µM in assay [3]; over 100 µM in assay [4]; over 100 µM in assay [5]; over 100 µM in assay [6]. Also, the TGI was over 100 µM in assay [7], over 79.7 µM in assay [8], over 100 µM in assay [9] and over 100 µM in [10].
`C[C@]1(S(=O)(=O)c2ccccc2)C[C@H]2N(Cc3ccccc3)[C@@H]1CCC21OCCO1`: the TGI in assay [1], in [2], in assay [3], in [4], in assay [5] and in assay [6] was over 100 µM in each case. The TGI in assay [7], in assay [8], in assay [9] and in assay [10] was over 100 µM throughout.
For `COc1ccc(N=Nc2c3c(c(O)c4ccccc24)CCC(C)(C)O3)cc1`, the TGI in assay [1] is 41.7 µM; in assay [2], 47.1 µM; in assay [3], 24.9 µM; in assay [4], 34.6 µM; in assay [5] it was 43.1 µM; in assay [6], 87 µM. Moreover, the TGI in assay [7] is 72.3 µM; in assay [8] it was over 100 µM; in assay [9], 28.9 µM; in assay [10], 34.4 µM.
Regarding `Cc1cc2c(nn1)-c1ccccc1C2=O`, the TGI in assay [1], in [2], in assay [3], in assay [4], in [5] and in assay [6] was over 10 µM throughout. Further, the TGI in [7], in assay [8], in assay [9] and in [10] was over 10 µM each time.
